The test system of experiment [1] is isolated rat soleus nerve-muscle preparations. Nature of the experiment: Measurement of force in an in vitro model: recovery of nerve-stimulated contractile force after tubocurarine. Conditions: 40 min, after 40 mins of compound exposure, tubocurarine (115 nM) for 90 minutes, read-out: Point increase (%): percentage increase of initial force that was restored; for activation at 10 µM: 10 μM of test compound; for activation at 50 µM: 50 μM of test compound. The protocol: In one aspect, the invention relates to a method for recovery of force in muscles with neuromuscular dysfunction, said method comprising administering a compound or a composition as defined herein to a subject in need thereof. The term “recovery of force in muscles with neuromuscular dysfunction” as used herein refers to the ability of a compound to recover contractile force in nerve-stimulated healthy rat muscle after exposure to submaximal concentration (115 nM) of tubocurarine for 90 minutes.
Recovery of force is quantified as the percentage of the force prior to tubocurarine that is recovered after addition of the compound. In one embodiment, said recovery of force is >5%, such as >10%, such as >15%, such as >20%, such as >25%, such as >30%, such as >35%.
The current disclosure relates to compounds that inhibit CIC-1 ion channels and increase muscle excitability and thereby improve muscle function in clinical conditions where muscle activation is failing. Such conditions result in loss of contractile function of skeletal muscle, weakness and excessive fatigue. In this series of experiments the compounds were tested for their ability to restore contractile function of isolated rat muscle when the neuromuscular transmission had been compromised akin to neuromuscular disorders.
Experimentally, soleus muscles from 4-5 week old rats were isolated with the motor nerve remaining attached. The nerve-muscle preparations were mounted in experimental setups that enabled electrical stimulation of the motor nerve. Stimulation of the motor nerve led to activation of the muscle fibres and ensuing force production that was recorded. The nerve-muscle preparations were also in these experiments incubated in the standard Krebs Ringer (see example 15) and the solution was heated to 30° C. and continuously equilibrated with a mixture of 95% O2 and 5% CO2, pH ~7.4.
After mounting the nerve-muscle preparation in the experimental setup, the contractile function of the muscle was initially assessed under the control conditions. Sub-maximal concentration of tubocurarine (115 nM), an acetylcholine receptor antagonist, was then added to the experimental bath to impose partial inhibition of the ability of the motor nerve to activate the muscle fibres. The experimental condition mimics the failing neuromuscular transmission in a range of neuromuscular disorders. After addition of tubocurarine the contractile force declined over the next 90 minutes to 10-50% of the control force. The test compound was then added to obtain the required compound concentration in the bath and the contractile force recovered was measured. To quantify the ability of the compound to restore force the percentage of the initial force that was restored was determined after 40 mins of compound exposure and the point increase is reported in Tables 3 to 7.

In the next experiment the target is T1, CIC-1 ion channel (Rattus norvegicus, UniProt P35524).
T1 construct: from tissue; host or cells: whole soleus muscle of 12-14 week old Wistar rats
T1 sequence (P35524 1-994): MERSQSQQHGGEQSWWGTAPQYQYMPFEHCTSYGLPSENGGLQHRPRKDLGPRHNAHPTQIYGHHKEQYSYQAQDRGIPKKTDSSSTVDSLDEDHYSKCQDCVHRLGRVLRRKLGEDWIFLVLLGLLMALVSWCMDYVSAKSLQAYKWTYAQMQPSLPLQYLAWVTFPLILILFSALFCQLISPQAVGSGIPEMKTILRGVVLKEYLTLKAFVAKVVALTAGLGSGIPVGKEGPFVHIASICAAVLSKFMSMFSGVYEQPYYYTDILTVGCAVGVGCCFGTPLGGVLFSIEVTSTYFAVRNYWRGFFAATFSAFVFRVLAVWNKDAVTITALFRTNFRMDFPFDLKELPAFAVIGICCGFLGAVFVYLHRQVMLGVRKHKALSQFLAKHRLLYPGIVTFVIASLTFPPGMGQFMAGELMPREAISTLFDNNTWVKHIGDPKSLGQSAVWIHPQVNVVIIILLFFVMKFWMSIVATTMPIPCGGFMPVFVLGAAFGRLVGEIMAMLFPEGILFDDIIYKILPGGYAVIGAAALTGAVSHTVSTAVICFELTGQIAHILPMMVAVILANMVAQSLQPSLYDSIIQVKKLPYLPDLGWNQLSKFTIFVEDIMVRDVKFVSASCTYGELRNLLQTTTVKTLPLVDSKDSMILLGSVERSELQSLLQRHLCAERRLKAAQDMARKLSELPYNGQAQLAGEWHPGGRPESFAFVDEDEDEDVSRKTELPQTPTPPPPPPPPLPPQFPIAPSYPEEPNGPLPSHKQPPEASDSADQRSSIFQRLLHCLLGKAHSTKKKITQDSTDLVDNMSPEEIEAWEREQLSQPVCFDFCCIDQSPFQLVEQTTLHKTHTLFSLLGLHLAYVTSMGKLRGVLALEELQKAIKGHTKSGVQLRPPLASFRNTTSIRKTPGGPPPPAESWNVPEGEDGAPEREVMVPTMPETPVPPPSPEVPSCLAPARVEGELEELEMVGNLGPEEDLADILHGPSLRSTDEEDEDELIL
Put plainly: Electrophysiological measurement of compound inhibition of CIC-1 in rat muscle (Gm in soleus fibres, three micro-electrodes). To be noted: Gm in individual fibres of whole rat soleus muscles, approx. 30° C., four increasing compound concentrations; read-out: Potency Range (EC50, inhibition of CIC-1 ion channel). The format is cell-based. How it is done:
Apparent CIC-1 affinity was reported by the concentration of compound at which 50% of the compound's full inhibition of CIC-1 was observed (EC50) (see also WO2019/115777).
Experimentally, Gm was measured in individual fibres of whole rat soleus muscles using a three micro-electrodes technique described in this example and in full detail elsewhere (Riisager et al., Determination of cable parameters in skeletal muscle fibres during repetitive firing of action potentials. Journal of Physiology, 2014, 592, 4417-4429). Briefly, intact rat soleus muscles were dissected out from 12-14 week old Wistar rats and placed in an experimental chamber that was perfused with a standard Krebs Ringer solution containing 122 mM NaCl, 25 mM NaHCO3, 2.8 mM KCl, 1.2 mM KH2PO4, 1.2 mM MgSO4, 1.3 mM CaCl2, 5.0 mM D-glucose. During experiments, the solution was kept at approx. 30° C. and continuously equilibrated with a mixture of 95% O2 and 5% CO2, pH ~7.4. The experimental chamber was placed in Nikon upright microscope that was used to visualize individual muscle fibres and the three electrodes (glass pipettes filled with 2 M potassium citrate). For Gm measurements, the electrodes were inserted into the same fibre with known inter-electrode distances of 0.35-0.5 mm (V1-V2, X1) and 1.1-1.5 mm (V1-V3, X3). The membrane potential of the impaled muscle fibre was recorded by all electrodes. Two of the electrodes were furthermore used to inject 50 ms current pulses of −30 nA. […] The steady state voltage deflection at each distance was divided by the magnitude of current injected (−30 nA) and the resulting transfer resistances were plotted against inter-electrode distance and the data was fitted to a mono-exponential function from which Gm could be calculated using linear cable theory.
To establish a dose response relationship, Gm was first determined in 10 muscle fibres in the absence of compound and then at four increasing compound concentrations with Gm determinations in 5-10 fibres at each concentration. The average Gm values at each concentration were plotted against compound concentration and the data was fitted to sigmoidal function to obtain an EC5o value.

Take `O=C(O)c1c(Cl)c(F)cc2c1CCCC2` [Compound A-27, 2-chloro-3-fluoro-5,6,7,8-tetrahydronaphthalene-1-carboxylic acid]: the activation at 10 µM in experiment [1] was determined as 38%. Besides, at CIC-1 ion channel, the EC50 lay in the range of 2000 to 10000 nM.
For the compound `Cc1cc2c(c(C(=O)O)c1Cl)CCCC2` [Compound A-28, 2-chloro-3-methyl-5,6,7,8-tetrahydronaphthalene-1-carboxylic acid], the activation at 50 µM in experiment [1] was 39%. Further, the EC50 at CIC-1 ion channel was in the range of 2000 to 10000 nM.
Consider `COc1c(Cl)cc2c(c1C(=O)O)C1CCC2CC1` [Compound A-29, 5-Chloro-4-methoxytricyclo[6.2.2.0^2,7]dodeca-2,4,6-triene-3-carboxylic acid], for which the activation at 50 µM in experiment [1] amounted to 42%. Further, the 50% effective concentration (EC50) at CIC-1 ion channel lay in the range of 2000 to 10000 nM.
Consider `O=C(O)c1c(Cl)c(Cl)cc2c1CCCC2` [Compound A-30, 2,3-Dichloro-5,6,7,8-tetrahydronaphthalene-1-carboxylic acid], for which, in experiment [1], the activation at 10 µM amounted to 45%. Further, the EC50 at CIC-1 ion channel lay within 200 to 2000 nM.
Take `COc1c(Cl)cc2c(c1C(=O)O)SCCC2` [Compound A-31, 6-chloro-7-methoxy-3,4-dihydro-2H-1-benzothiopyran-8-carboxylic acid]: in experiment [1], the activation at 10 µM worked out at 48%. On CIC-1 ion channel, the EC50 lay within 200 to 2000 nM.
Consider `CSc1c(Cl)cc2c(c1C(=O)O)CCCC2` [Compound A-32, 3-Chloro-2-(methylsulfanyl)-5,6,7,8-tetrahydronaphthalene-1-carboxylic acid], for which the activation at 10 µM in experiment [1] was 24%. The EC50 at CIC-1 ion channel fell in the range of 200 to 2000 nM.
Turning to `Cc1c(Cl)cc2c(c1C(=O)O)CCCCC2` [Compound A-33, 3-Chloro-2-methyl-6,7,8,9-tetrahydro-5H-benzo[7]annulene-1-carboxylic acid], the activation at 10 µM in experiment [1] turned out to be 17%. The EC50 on CIC-1 ion channel lay within 2000 to 10000 nM.
Regarding `C=Cc1c(Cl)cc2c(c1C(=O)O)CCCC2` [Compound A-35, 3-Chloro-2-ethenyl-5,6,7,8-tetrahydronaphthalene-1-carboxylic acid], the activation at 10 µM in experiment [1] is 16%. Also, the EC50 at CIC-1 ion channel is 200 to 2000 nM.
With `O=C(O)c1c(F)c(Cl)cc2c1OCCC2` [Compound A-36, 6-Chloro-7-fluoro-3,4-dihydro-2H-1-benzopyran-8-carboxylic acid], the activation at 10 µM in experiment [1] came to 43%. Moreover, the half-maximal effective concentration (EC50) on CIC-1 ion channel is 2000 to 10000 nM.
`O=C(O)c1c(Cl)c(F)cc2c1OCCC2` [Compound A-37, 7-Chloro-6-fluoro-3,4-dihydro-2H-1-benzopyran-8-carboxylic acid]: in experiment [1], the activation at 50 µM amounted to 48%. Further, on CIC-1 ion channel, the half-maximal effective concentration (EC50) was 2000 to 10000 nM.
Turning to `O=C(O)c1c(F)c(Cl)cc2c1SCCC2` [Compound A-38, 6-Chloro-7-fluoro-3,4-dihydro-2H-1-benzothiopyran-8-carboxylic acid], the activation at 10 µM in experiment [1] stood at 48%. Besides, at CIC-1 ion channel, the half-maximal effective concentration (EC50) fell in the range of 200 to 2000 nM.
The like results for `O=C(O)c1c(F)c(Cl)cc2c1CCCO2` [Compound A-39, 7-Chloro-6-fluoro-3,4-dihydro-2H-1-benzopyran-5-carboxylic acid] were, in that order, 59% and 200 to 2000 nM.
Regarding `CN1CCCc2cc(Cl)c(F)c(C(=O)O)c21` [Compound A-40, 6-Chloro-7-fluoro-1-methyl-1,2,3,4-tetrahydroquinoline-8-carboxylic acid], the activation at 10 µM in experiment [1] was 39%. On CIC-1 ion channel, the half-maximal effective concentration (EC50) was 200 to 2000 nM.
`O=C(O)c1c(F)c(Cl)cc2c1NCCC2` [Compound A-41, 6-Chloro-7-fluoro-1,2,3,4-tetrahydroquinoline-8-carboxylic acid]: the activation at 10 µM in experiment [1] was 49%. Besides, the EC50 on CIC-1 ion channel lay within 2000 to 10000 nM.
For `O=C(O)c1c(F)c(F)cc2c1SCCC2` [Compound A-42, 6,7-difluoro-3,4-dihydro-2H-1-benzothiopyran-8-carboxylic acid], in experiment [1], the activation at 50 µM stood at 47%. Moreover, the EC50 on CIC-1 ion channel lay within 10000 to 20000 nM.
Take `O=C(O)c1c(F)c(F)cc2c1CCCC2` [Compound A-44, 2,3-Difluoro-5,6,7,8-tetrahydronaphthalene-1-carboxylic acid]: in experiment [1], the activation at 50 µM was 59%. In addition, the EC50 at CIC-1 ion channel lay within 2000 to 10000 nM.
For the compound `COc1c(C)cc2c(c1C(=O)O)CCC2` [Compound A-47, 5-Methoxy-6-methyl-2,3-dihydro-1H-indene-4-carboxylic acid], in experiment [1], the activation at 50 µM is 37%. For the same compound, the EC50 on CIC-1 ion channel lay in the range of 2000 to 10000 nM.
On to `Cc1cc2c(c(C(=O)O)c1F)SCCC2` [Compound A-48, 7-fluoro-6-methyl-3,4-dihydro-2H-1-benzothiopyran-8-carboxylic acid], for which the activation at 10 µM in experiment [1] was determined as 25%. In addition, the EC50 on CIC-1 ion channel was 2000 to 10000 nM.
The matching figures for `Cc1cc2c(c(C(=O)O)c1F)CCCC2` [Compound A-49, 2-Fluoro-3-methyl-5,6,7,8-tetrahydronaphthalene-1-carboxylic acid]: 40% and 200 to 2000 nM.
With `Cc1cc2c(c(C(=O)O)c1F)OCCC2` [Compound A-50, 7-fluoro-6-methyl-3,4-dihydro-2H-1-benzopyran-8-carboxylic acid], in experiment [1], the activation at 50 µM turned out to be 51%. Further, the half-maximal effective concentration (EC50) at CIC-1 ion channel was in the range of 2000 to 10000 nM.
For `CCc1cc2c(c(C(=O)O)c1F)CCCC2` [Compound A-51, 3-Ethyl-2-fluoro-5,6,7,8-tetrahydronaphthalene-1-carboxylic acid], the activation at 10 µM in experiment [1] was 29%. Also, on CIC-1 ion channel, the concentration giving a half-maximal response (EC50) lay within 2000 to 10000 nM.

The values are drawn from patent publication US20260199273A1, “Compounds for the Treatment of Neuromuscular Disorders” (NMD PHARMA A/S, priority 2022, published 2026).
